Among the test systems are HL-60(TB) leukemia; SNB-75 CNS; SF-295 CNS; RXF 393 renal; COLO 205 colon; MALME-3M melanoma; M14 melanoma; IGROV1 ovarian; SF-268 CNS; UO-31 renal.
Experiment in all cases: NCI tumour cell line growth inhibition, 48 h

Structures are written as SMILES.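 1) Cells in 96-well plates. 2) Compound, 48 h, 5 concentrations. 3) Linear interpolation between surrounding doses. 4) Unreached endpoint = highest concentration. Abbreviation: GI50, concentration required for 50% inhibition of growth. TGI is the concentration that stops growth completely.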 Some results are limits rather than exact numbers.

With `O=c1/c(=C/c2ccc(Cl)cc2Cl)sc2nc3ccccc3n12`, the TGI in the assay with HL-60(TB) leukemia, in the assay with SNB-75 CNS, with SF-295 CNS, with RXF 393 renal, in the assay on COLO 205 colon and in the assay on MALME-3M melanoma was above 100 µM throughout. The TGI with M14 melanoma, in the assay with IGROV1 ovarian, with SF-268 CNS and in the assay on UO-31 renal was above 100 µM in each case.

Take `C#C[C@]1(O)CC[C@H]2[C@@H]3CC=C4c5sc(N=C(N)N)nc5CC[C@]4(C)[C@H]3CC[C@@]21C`: the GI50 is 425 nM in the assay with HL-60(TB) leukemia; 152 nM in the assay on SNB-75 CNS; 188 nM in the assay on SF-295 CNS; 141 nM in the assay on RXF 393 renal; 667 nM with COLO 205 colon; 338 nM in the assay on MALME-3M melanoma. For the same compound, the GI50 was 497 nM in the assay with M14 melanoma, 1030 nM with IGROV1 ovarian, 959 nM with SF-268 CNS and 307 nM in the assay on UO-31 renal. In addition, the TGI with HL-60(TB) leukemia came to 1.92 µM; in the assay on SNB-75 CNS it was 1.32 µM; with SF-295 CNS, 0.452 µM; in the assay on RXF 393 renal it was 0.555 µM; in the assay with COLO 205 colon, 2.24 µM; in the assay on MALME-3M melanoma, 1.19 µM. Besides, the TGI stood at 1.56 µM with M14 melanoma, 2.41 µM in the assay on IGROV1 ovarian, 2.75 µM in the assay with SF-268 CNS and 0.931 µM in the assay on UO-31 renal.

As for `CC(C)=CCc1c(O)cc(/C=C/c2cc(O)c3c(c2)C[C@@H]2C(C)(C)[C@H](O)[C@H](O)C[C@@]2(C)O3)cc1O`, the GI50 was below 1 nM with HL-60(TB) leukemia; below 1 nM with SNB-75 CNS; below 1 nM with SF-295 CNS; below 1 nM in the assay on RXF 393 renal; 1370 nM with COLO 205 colon; 1210 nM with MALME-3M melanoma. Besides, the GI50 with M14 melanoma was 548 nM; with IGROV1 ovarian, 1250 nM; in the assay with SF-268 CNS, 1110 nM; with UO-31 renal it was below 1 nM. In addition, the TGI with HL-60(TB) leukemia turned out to be 3.05 µM; in the assay with SNB-75 CNS, 0.958 µM; in the assay on SF-295 CNS it was 0.00118 µM; in the assay on COLO 205 colon, 3.82 µM; in the assay on MALME-3M melanoma it was 6.51 µM; with M14 melanoma it was 4.02 µM. Besides, the TGI in the assay with IGROV1 ovarian was above 10 µM; with SF-268 CNS it was above 7.76 µM; in the assay with UO-31 renal it was 4.92 µM.

In the case of `COc1cc(OC)c2c(=O)c(O)c(-c3ccc(OC)c(OC)c3)oc2c1`, the TGI with HL-60(TB) leukemia is 44.3 µM; in the assay with SNB-75 CNS, above 100 µM; with SF-295 CNS it was 38.1 µM; in the assay on RXF 393 renal it was 56.6 µM; in the assay with COLO 205 colon, above 100 µM; in the assay with MALME-3M melanoma, above 31.6 µM. In addition, the TGI in the assay with M14 melanoma is above 31.6 µM; with IGROV1 ovarian, above 31.6 µM; in the assay with SF-268 CNS, above 31.6 µM; with UO-31 renal, above 100 µM.

With `O=c1[nH]c(Br)nc2c(Br)c[nH]c12`, the TGI in the assay on HL-60(TB) leukemia, in the assay on SNB-75 CNS, with SF-295 CNS, with RXF 393 renal, with COLO 205 colon and in the assay with MALME-3M melanoma was above 100 µM in each case. Moreover, the TGI with M14 melanoma, in the assay on IGROV1 ovarian, with SF-268 CNS and in the assay on UO-31 renal was above 100 µM in each case.

As to `O=C(Nc1c(-c2nc3ccccc3[nH]2)sc(=S)n1-c1ccccc1)c1ccccc1`, the TGI in the assay with HL-60(TB) leukemia was above 100 µM; with SNB-75 CNS, 58.4 µM; in the assay on SF-295 CNS it was above 100 µM; in the assay with RXF 393 renal, above 100 µM; in the assay with COLO 205 colon, above 100 µM; with MALME-3M melanoma it was above 100 µM. Besides, the TGI with M14 melanoma, with IGROV1 ovarian, in the assay on SF-268 CNS and with UO-31 renal was above 100 µM throughout.

Take `CS(=O)(=O)CCNCc1ccc(-c2ccc3ncnc(Nc4ccc(OCc5cccc(C(F)(F)F)c5)cc4)c3c2)o1`: the GI50 in the assay with HL-60(TB) leukemia is 4960 nM; with SNB-75 CNS it was 8210 nM; in the assay on SF-295 CNS, 5080 nM; with RXF 393 renal, 5280 nM; with COLO 205 colon, 6830 nM; with MALME-3M melanoma, 5280 nM. Further, the GI50 with M14 melanoma is 6110 nM; in the assay with IGROV1 ovarian it was 5460 nM; in the assay on SF-268 CNS, 4540 nM; in the assay with UO-31 renal it was 4340 nM. For the same compound, the TGI in the assay with HL-60(TB) leukemia is 10.9 µM; in the assay with SNB-75 CNS it was above 21.1 µM; in the assay with SF-295 CNS it was 11.3 µM; with RXF 393 renal, 13.6 µM; in the assay on COLO 205 colon, above 15.5 µM; in the assay with MALME-3M melanoma it was 10.5 µM. Moreover, the TGI with M14 melanoma was 13.9 µM; in the assay with IGROV1 ovarian, above 17.5 µM; in the assay with SF-268 CNS, 9.82 µM; in the assay on UO-31 renal, 10.2 µM.

For the compound `CCOC(=O)CC1(O)C=CC(=O)C=C1`, the GI50 in the assay on HL-60(TB) leukemia was 1 µg/mL; with SNB-75 CNS it was 1.95 µg/mL; in the assay on SF-295 CNS, 2.55 µg/mL; in the assay with RXF 393 renal it was 0.666 µg/mL; with COLO 205 colon, 2.59 µg/mL; in the assay with MALME-3M melanoma, 0.914 µg/mL. Besides, the GI50 in the assay on M14 melanoma was 1.67 µg/mL; in the assay with IGROV1 ovarian, 0.885 µg/mL; in the assay on SF-268 CNS, 0.57 µg/mL; in the assay with UO-31 renal it was 2.41 µg/mL. Besides, the TGI in the assay on HL-60(TB) leukemia was 24.3 µg/mL; with SNB-75 CNS, 4.38 µg/mL; in the assay on SF-295 CNS, 5.07 µg/mL; in the assay on RXF 393 renal, 1.75 µg/mL; in the assay with COLO 205 colon, 6.19 µg/mL; in the assay on MALME-3M melanoma it was 2.89 µg/mL. For the same compound, the TGI came to 4.35 µg/mL with M14 melanoma, 2.19 µg/mL in the assay on IGROV1 ovarian, 1.92 µg/mL in the assay on SF-268 CNS and 4.44 µg/mL in the assay on UO-31 renal.

Turning to `C=C1CC(CCCl)(c2ccccc2)OC1=O` (centres undefined), the TGI is 44.8 µM with HL-60(TB) leukemia; 71 µM in the assay with SNB-75 CNS; above 100 µM in the assay with SF-295 CNS; 47.7 µM in the assay on RXF 393 renal; above 58 µM in the assay with COLO 205 colon; 56.8 µM in the assay on MALME-3M melanoma. Moreover, the TGI is 38.6 µM in the assay on M14 melanoma, above 100 µM in the assay on IGROV1 ovarian, above 90.5 µM in the assay with SF-268 CNS and above 100 µM with UO-31 renal.

These data come from PubChem BioAssay (NCI).
